# Measured values as given in patent US9029337B2, “Modulation of factor 7 expression” (Isis Pharmaceuticals, Inc., priority 2007, dated 2015).
# Strand notation (5' to 3'): a small letter for the sugar, then the base; units joined by * are phosphorothioate-linked, units joined directly phosphodiester-linked; [ ] holds rarer units or linkages, { } end groups; capitals alone tell only the bases. e = 2'-O-(2-methoxyethyl) (MOE); [5mC] = 5-methylcytosine; d = 2'-deoxy (DNA)
# Tested on: human Factor 7 mRNA
# Assay: Antisense inhibition of human Factor 7 with short (14-mer) oligonucleotides in HepB3 cells, electroporation 1,000 nM
# Format: cell-based
# Settings: electroporation, 1,000 nM antisense oligonucleotide, approximately 24 hours, Factor 7 mRNA relative to untreated control cells
# Summary of the method: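 14-mer 2-10-2 MOE gapmers (full phosphorothioate, 5-methyl-C) electroporated at 1,000 nM into HepB3 cells at 20,000 cells/well. After ~24 h, Factor 7 mRNA by real-time RT-PCR, normalized to RiboGreen total RNA. Reported as % inhibition relative to untreated cells.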
row,Substance,% Inhibition [%]
1,435736 (antisense eA*eT*dG*d[5mC]*dA*dT*dG*dG*dT*dG*dA*dT*eG*e[5mC]) [compound 435736],50
2,435814 (antisense eT*eG*dA*d[5mC]*dG*dA*dG*dA*dG*dG*dA*d[5mC]*e[5mC]*eA) [compound 435814],31
3,435756 (antisense eT*eG*d[5mC]*d[5mC]*d[5mC]*dA*dG*dG*dA*d[5mC]*dG*dG*e[5mC]*e[5mC]) [compound 435756],20
4,435795 (antisense eA*e[5mC]*dA*d[5mC]*d[5mC]*d[5mC]*dG*dA*dG*dG*dT*dT*e[5mC]*eA) [compound 435795],66
5,435813 (antisense eG*eG*dA*dT*dG*d[5mC]*dA*d[5mC]*dA*d[5mC]*d[5mC]*dA*eG*eG) [compound 435813],55
6,435652 (antisense e[5mC]*eT*dG*dG*dT*d[5mC]*dA*dT*d[5mC]*d[5mC]*dT*dT*eG*eT) [compound 435652],48
7,435719 (antisense e[5mC]*eA*dG*d[5mC]*d[5mC]*dT*dT*dG*dG*d[5mC]*dT*dT*eT*e[5mC]) [compound 435719],50
8,435667 (antisense eA*eA*dT*dT*d[5mC]*dG*dG*d[5mC]*d[5mC]*dT*dT*dG*eG*eG) [compound 435667],16
9,435486 (antisense eG*eT*d[5mC]*d[5mC]*dT*dG*dG*dG*dT*d[5mC]*dA*dT*e[5mC]*eA) [compound 435486],64
10,435653 (antisense eA*eT*d[5mC]*dA*dG*d[5mC]*dT*dG*dG*dT*d[5mC]*dA*eT*e[5mC]) [compound 435653],32
11,435818 (antisense eG*eT*d[5mC]*dA*dT*d[5mC]*d[5mC]*dT*dT*dG*dT*d[5mC]*eT*eG) [compound 435818],43
12,435676 (antisense eG*eA*dT*dT*dT*dT*dG*dT*d[5mC]*dG*dA*dA*eA*e[5mC]) [compound 435676],11
13,435767 (antisense e[5mC]*eA*d[5mC]*d[5mC]*dA*dA*dG*dT*dT*dT*dA*dT*eG*eG) [compound 435767],0
14,435774 (antisense eG*eT*d[5mC]*d[5mC]*d[5mC]*dA*dG*dG*dG*dA*dA*dG*eG*e[5mC]) [compound 435774],17
15,435805 (antisense eT*eG*dA*dA*dT*dT*dA*d[5mC]*dT*dG*dA*dA*e[5mC]*e[5mC]) [compound 435805],0
16,435717 (antisense eT*eG*dA*dG*d[5mC]*dT*dT*dT*dT*dG*d[5mC]*dA*eG*e[5mC]) [compound 435717],0
17,435478 (antisense eG*eA*dG*dG*d[5mC]*dA*d[5mC]*dA*d[5mC]*dT*dG*dG*eT*e[5mC]) [compound 435478],43
18,435811 (antisense eG*eT*dG*dG*dT*d[5mC]*dA*dA*dG*dG*dA*dT*eG*eA) [compound 435811],27
19,435825 (antisense e[5mC]*eT*dG*dG*dT*dT*dT*dT*dG*dG*dA*dG*eG*eA) [compound 435825],0
20,435759 (antisense eG*eA*dG*d[5mC]*d[5mC]*dA*d[5mC]*dA*dG*dA*dG*d[5mC]*e[5mC]*eT) [compound 435759],11

row,Substance,% Inhibition [%]
1,435642 (antisense eA*e[5mC]*dA*d[5mC]*dT*dG*dG*dT*d[5mC]*d[5mC]*d[5mC]*d[5mC]*eA*eT) [compound 435642],60
2,435776 (antisense eG*eG*dG*dA*d[5mC]*dA*d[5mC]*dT*d[5mC]*dA*d[5mC]*dA*e[5mC]*eT) [compound 435776],51
3,435754 (antisense eT*e[5mC]*dA*dG*d[5mC]*dA*dA*dG*dA*dG*dT*dG*e[5mC]*eA) [compound 435754],16
4,435698 (antisense e[5mC]*e[5mC]*dT*dT*dG*d[5mC]*dA*dG*dG*dA*dG*dT*e[5mC]*e[5mC]) [compound 435698],61
5,435747 (antisense eA*eT*dA*dT*d[5mC]*dA*dT*dT*dG*dA*d[5mC]*dA*eA*eG) [compound 435747],0
6,435481 (antisense eG*eG*dG*dT*d[5mC]*dA*dT*d[5mC]*dA*dG*d[5mC]*d[5mC]*eG*eG) [compound 435481],50
7,435772 (antisense eG*e[5mC]*dA*dG*dT*d[5mC]*d[5mC]*d[5mC]*dT*dG*d[5mC]*dT*e[5mC]*eA) [compound 435772],42
8,435485 (antisense eT*e[5mC]*d[5mC]*dT*dG*dG*dG*dT*d[5mC]*dA*dT*d[5mC]*eA*eG) [compound 435485],34
9,435806 (antisense eT*eG*dA*d[5mC]*d[5mC]*d[5mC]*d[5mC]*dA*d[5mC]*dA*dG*dG*eG*eA) [compound 435806],7
10,435721 (antisense eT*eA*dA*dG*dG*dA*dG*dG*d[5mC]*dT*d[5mC]*dA*eG*e[5mC]) [compound 435721],12
11,435640 (antisense eT*eG*dT*dA*dA*dG*dA*dA*dA*dT*d[5mC]*d[5mC]*eA*eG) [compound 435640],2
12,435504 (antisense eA*eT*dG*dT*dA*d[5mC]*dT*dG*dG*dG*dA*dG*eA*e[5mC]) [compound 435504],8
13,435483 (antisense e[5mC]*eT*dG*dG*dG*dT*d[5mC]*dA*dT*d[5mC]*dA*dG*e[5mC]*e[5mC]) [compound 435483],82
14,435815 (antisense e[5mC]*eT*d[5mC]*dT*dT*d[5mC]*d[5mC]*dG*dA*dG*d[5mC]*dA*eG*e[5mC]) [compound 435815],59
15,435634 (antisense eT*eG*dA*dA*dA*dT*d[5mC]*dT*d[5mC]*dT*dG*d[5mC]*eA*eG) [compound 435634],5
16,435735 (antisense eT*eG*dG*dT*dG*dA*dT*dG*d[5mC]*dT*dT*d[5mC]*eT*eG) [compound 435735],81
17,435763 (antisense eA*eG*dG*dA*dG*dA*dA*dA*dG*dG*dT*d[5mC]*eA*eG) [compound 435763],2
18,435828 (antisense eG*eA*d[5mC]*d[5mC]*dT*dG*d[5mC]*d[5mC]*d[5mC]*dA*dT*dT*eT*eT) [compound 435828],0
19,435751 (antisense e[5mC]*eT*dT*dG*d[5mC]*d[5mC]*dA*dG*dG*dT*d[5mC]*d[5mC]*eT*e[5mC]) [compound 435751],28
20,435816 (antisense eT*e[5mC]*d[5mC]*dA*dA*dA*dG*dG*dA*d[5mC]*dA*dA*eG*eG) [compound 435816],4

row,Substance,% Inhibition [%]
1,435801 (antisense e[5mC]*eG*dG*dT*dT*dG*dG*d[5mC]*d[5mC]*dA*dG*dG*e[5mC]*e[5mC]) [compound 435801],38
2,435490 (antisense e[5mC]*e[5mC]*dT*dG*dG*dT*dG*dT*dA*d[5mC]*dA*d[5mC]*e[5mC]*e[5mC]) [compound 435490],49
3,435643 (antisense e[5mC]*eT*dT*dG*d[5mC]*dA*dG*dG*dA*dG*d[5mC]*d[5mC]*e[5mC]*e[5mC]) [compound 435643],51
4,435716 (antisense eT*eT*dT*dT*dG*d[5mC]*dA*dG*d[5mC]*d[5mC]*dA*d[5mC]*eT*e[5mC]) [compound 435716],22
5,435764 (antisense eT*eG*dA*dG*dA*dG*d[5mC]*dT*dG*d[5mC]*dA*d[5mC]*e[5mC]*eT) [compound 435764],8
6,435636 (antisense eG*eA*dG*dA*d[5mC]*d[5mC]*dA*dT*dG*dA*dT*dG*eA*eA) [compound 435636],13
7,435787 (antisense eG*eA*dG*dT*dG*dT*dG*dA*dG*dG*d[5mC]*dT*eT*e[5mC]) [compound 435787],34
8,435796 (antisense eT*eG*dA*d[5mC]*d[5mC]*dA*d[5mC]*dA*d[5mC]*dA*dT*dT*eT*e[5mC]) [compound 435796],30
9,435734 (antisense eA*eT*dG*d[5mC]*dT*dT*d[5mC]*dT*dG*dA*dA*dT*eT*eG) [compound 435734],16
10,435654 (antisense eG*e[5mC]*d[5mC]*dG*dT*dT*d[5mC]*dT*d[5mC]*dG*dT*dT*e[5mC]*eA) [compound 435654],71
11,435783 (antisense eA*eA*dA*d[5mC]*d[5mC]*dG*dG*d[5mC]*dA*dT*dG*d[5mC]*eG*e[5mC]) [compound 435783],49
12,435826 (antisense eA*eA*dG*dT*dG*dG*d[5mC]*dT*dG*dG*d[5mC]*dT*eG*eA) [compound 435826],27
13,435494 (antisense eA*eG*dA*d[5mC]*d[5mC]*d[5mC]*dT*dG*dG*dT*dG*dT*eA*e[5mC]) [compound 435494],47
14,435750 (antisense e[5mC]*eA*d[5mC]*dT*dG*d[5mC]*dA*dG*d[5mC]*d[5mC]*dA*dG*eG*eG) [compound 435750],14
15,435790 (antisense eA*eT*dG*dA*d[5mC]*d[5mC]*dA*dT*d[5mC]*d[5mC]*dT*d[5mC]*eA*eA) [compound 435790],1
16,435690 (antisense eG*eT*d[5mC]*d[5mC]*dG*dT*dT*d[5mC]*dG*dG*dG*d[5mC]*eA*eG) [compound 435690],55
17,435834 (antisense eT*eG*dA*d[5mC]*dA*dG*d[5mC]*dA*d[5mC]*dG*dA*dA*eG*e[5mC]) [compound 435834],20
18,435798 (antisense eA*eG*d[5mC]*d[5mC]*dA*dG*dA*d[5mC]*dT*dT*dT*d[5mC]*e[5mC]*eT) [compound 435798],54
